Source: ChEMBL document CHEMBL5523744, “Recent Advances in Targeted Cancer Therapy: Are PDCs the Next Generation of ADCs?” (J Med Chem, 2024)

Test system: DNA
Assay: Induction of DNA (unknown origin) minor groove alkylation
Format: nucleic-acid assay, Homo sapiens

IC50: 0.04 nM
Structure (SMILES): CC(C)(C)OC(=O)Nc1ccc(C(=O)Nc2ccc3cc(C(=O)N4C[C@@H](CCl)c5c4cc(O)c4ccccc54)[nH]c3c2)cc1
